Values quoted from earlier work, collected in patent US8278066B2, “Truncated somatostatin receptors” (Board of Regents, The University of Texas System, priority 2001, dated 2012).

Biological target: SSTR2 (Homo sapiens, UniProt P30874)
Conditions: reported by Reisine et al. 1993; Raynor et al. 1993; cited from earlier work

Sequence of SSTR2 (P30874 whole entry, species assumed): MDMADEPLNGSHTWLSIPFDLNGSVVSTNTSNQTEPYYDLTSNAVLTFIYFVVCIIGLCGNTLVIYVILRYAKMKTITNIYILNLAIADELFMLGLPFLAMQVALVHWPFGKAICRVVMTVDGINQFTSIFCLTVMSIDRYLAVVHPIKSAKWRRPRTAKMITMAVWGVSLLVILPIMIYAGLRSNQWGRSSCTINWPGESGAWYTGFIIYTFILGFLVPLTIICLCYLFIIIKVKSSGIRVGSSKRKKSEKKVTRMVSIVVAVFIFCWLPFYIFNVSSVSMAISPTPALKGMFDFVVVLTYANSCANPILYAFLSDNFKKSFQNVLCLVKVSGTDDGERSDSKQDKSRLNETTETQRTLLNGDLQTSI

In the case of `C[C@@H](O)[C@@H]1NC(=O)[C@H](CCCCN)NC(=O)[C@@H](Cc2c[nH]c3ccccc23)NC(=O)[C@H](Cc2ccccc2)NC(=O)[C@@H](NC(=O)[C@H](N)Cc2ccccc2)CSSC[C@@H](C(=O)N[C@H](CO)[C@@H](C)O)NC1=O` [octreotide], the Receptor saturation is given as 100 nM.
